In brackets after ≈: the same amount, converted by molar mass. Values belong to the compound of their own block, whether it stands above or below them.
Columns and labels:
[1] = tested on: Candida albicans KE-2; test: Therapeutic effect against experimental candidiasis in mice; assay type: in vivo; settings: female Jcl-ICR mice infected intravenously; 50 mg/kg orally twice a day for 5 days; survival at the 15th day
Experimental: [Therapeutic effect against experimental candidiasis in mice] Candida albicans KE-2 was cultivated in a Sabouraud's dextrose agar at 28°C for 48 hours, and the resulting culture was suspended in the Sabouraud's dextrose broth. The cells (5 x 105) were administered intravenously at the tail of female Jcl-ICR mice (4 weeks age, body weight 18 - 20 g). The test compound suspended in 2 % gum-arabic was orally administered at a dose of 50 mg/kg twice a day for 5 days: on the first day, the test compound was administered twice i.e. immediately after the infection and 2 hours later; on the second day or later, 24 hours after the administration of the previous day respectively. An infected group to which no test compound was administered was regarded as a control group. Eight mice were employed per group in the control group and the test groups to which the test compound was administered. Therapeutic effect was evaluated on the survival rate at the 15th day since the day of infection; the result is shown below.

[2] = tested on: Trichophyton asteroides; test: in vitro antifungal test, minimum inhibitory concentration (MIC); assay type: cell-based; settings: Sabouraud's dextrose broth
Text: Sabouraud's dextrose broth was used as a culture medium.

[3] = tested on: cucurbit powdery mildew (Sphaerotheca fuliginea); test: Control of powdery mildew in cucumber; assay type: in vivo; design: key: O: Disease sign was detected for nearly 100 % area in the inoculated leaf surface; 3: Disease sign was detected for about 50 % area; 5: Disease sign was detected for about 30 % area; 7: Disease sign was detected for about 20 % area; 9: Disease sign was slightly detected; 10: No disease sign was detected; settings: degree of mildew infection 10 days after inoculation; for Foliar spray (125 ppm) Supprension: sprayed at 125 ppm 2 days after inoculation; for Foliar spray (125 ppm) Prevention: sprayed at 125 ppm before inoculation; for Soil application (10 ppm) Prevention: 10 ml at 10 ppm applied to the soil before inoculation
Experimental: Three ml of preparation containing a test compound at a concentration of 125 ppm was sprayed foliarly to the first leaf of young cucumber plant (cultivar: Matsukaze) which was grown in 9 cm pot in a glasshouse. Similar preparation in 10 ml with the test compound at a concentration of 10 ppm was applied directly to the soil in another pot with cucumber. These plants were inoculated subsequently with conidia suspension of cucurbit powdery mildew (Sphaerotheca fuliginea) and kept in a glasshouse at the temperature of 25 ± 2 °C. Yet in another experiment cucumber in pot was inoculated first with conidia of Sphaerotheca fuliginea and after 2 days the test compound was sprayed foliarly as above to examine its suppressive ability against development of the disease. For all these cucumber plants were observed 10 days after each inoculation and degrees of mildew infection were given as follows: • O : Disease sign was detected for nearly 100 % area in the inoculated leaf surface • 3 : Disease sign was detected for about 50 % area • 5 : Disease sign was detected for about 30 % area • 7 : Disease sign was detected for about 20 % area • 9 : Disease sign was slightly detected • 10: No disease sign was detected

[4] = tested on: Candida albicans KE-2; test: Inhibition test against the formation of the pseudohyphae of Candida albicans; assay type: cell-based; settings: KE2; Candida albicans KE-2, 1 x 10^6 cells/ml; Eagle's MEM with 20 % bovine serum; 37°C, 18 hours; two-fold dilution; read-out: Inhibitory Concentration against Pseudohyphae Formation
Experimental: [Inhibition test against the formation of the pseudohyphae of Candida albicans] To an Eagle's MEM medium (Nissan 2; Nissui Pharmaceutical Co., Ltd.) was added 20 % bovine serum, onto which yeast cells of Candida albicans KE-2 were inoculated so that the terminal inoculum size would amount to 1 x 10^6 cells/ml. Then, a test compound was added to the medium by a two-fold dilution method, and cultivation was performed at 37°C for 18 hours. After termination of the cultivation, the cells of serial dilution on each medium were smeared and fixed on an object glass, then stained by the Giemsa's staining method, and the occurrence of the pseudohyphae was observed by microscopy. Minimum concentration for inhibiting the formation of the pseudohyphae was regarded as Inhibitory Concentration against Pseudohyphae Formation.

[5] = tested on: dumping-off pathogen, Rhizoctonia solani; test: Control of dumping-off in cucumber seedlings; assay type: in vivo; settings: cucumber seeds, 14 days after sowing; for Disease degree (%): 30 ml at 500 ppm applied to the soil, 30 ± 2 °C; for Control (%): 500 ppm applied to the soil, calculated from disease degree
Experimental: Twenty seeds of cucumber (cultivar: Matsukaze) were sown in 150 g of sterilized soil in 9 cm pot. The soil surface was covered with 15 g of inoculum which contained a dumping-off pathogen, Rhizoctonia solani precultured in a mixture of wheat bran and sterilized soil. Then 30 ml of preparation with a test compound at a concentration of 500 ppm was applied to the soil and the pot was kept at 30 ± 2 °C in a humid chamber.

[6] = tested on: sheath blight fungus (Rhizoctonia solani); test: Control of sheath blight in rice; assay type: in vivo; settings: rice sprayed foliarly at 500 ppm, 5 days
Experimental: Rice (cultivar: Aichi-asahi) was grown in pots in a glasshouse for about 3 months and the plant in each pot was sprayed foliarly with 5 ml of preparation containing a test compound at a concentration of 500 ppm. Then the rice was inoculated at the stem near the soil with sheath blight fungus (Rhizoctonia solani) which was previously cultured in rice husks. The inoculated plant was placed in a humid (r.h. 97 %) chamber at 28°C for 5 days.

[7] = tested on: cucumber downy mildew (Pseudoperonospora cubensis); test: Control of cucumber downy mildew; assay type: in vivo; settings: cucumber leaf sprayed at 125 ppm, 10 days
Experimental: The first leaf of young cucumber plant (cultivar : Matsukaze) grown in pot was sprayed with 3 ml of preparation containing a test compound at a concentration of 125 ppm. Five small droplets of suspension of sporangia of cucumber downy mildew (Pseudoperonospora cubensis) were applied to the leaf surface and the pot was kept at 22 ± 2°C under humid condition for 10 days. Then disease degree of downy mildew symptom developed was determined by the following method : [formula] • where, a : Number of inoculations showing typical disease symptom • b : Number of inoculations at which chlorosis was developed • c : Number of inoculations at which chlorosis was slightly developed • d : Number of inoculations at which no disease symptoms were developed Disease degree in Disease degree in [formula]

SMILES: O=C(c1ccc(F)cc1)C(O)(Cn1cncn1)c1ccccc1Cl (centres unmarked) [compound 19]
Survival Rate [1]: 100%

MIC [2]: 12.5 µg/mL (≈ 35.4 µM)
SMILES: COc1ccc(C(=O)C(O)(Cn2cncn2)c2ccc(OC)cc2)cc1 (centres unmarked) [compound 7]

MIC [2]: 0.1 µg/mL (≈ 0.232 µM)
SMILES: O=C(c1ccc(Cl)cc1Cl)C(O)(Cn1ccnc1)c1ccc(Cl)cc1Cl (centres unmarked) [Compound No. 1, 2',4'-dichloro-2-(2,4-dichlorophenyl)-2-hydroxy-3-(1H-imidazol-1-yl)propiophenone]
Foliar spray (125 ppm) Supprension [3]: 10
Foliar spray (125 ppm) Prevention [3]: 10

MIC [2]: 0.1 µg/mL (≈ 0.292 µM)
SMILES: CCCCC(=O)C(O)(Cn1cncn1)c1ccc(Cl)cc1Cl (centres unmarked) [compound 23]

MIC [2]: 0.8 µg/mL (≈ 2.72 µM)
SMILES: CCCC(=O)C(O)(Cn1cncn1)c1ccccc1Cl (centres unmarked) [compound 32]
minimal effective concentration [4]: 0.04 µg/mL
Soil application (10 ppm) Prevention [3]: 10
Foliar spray (125 ppm) Supprension [3]: 10
Foliar spray (125 ppm) Prevention [3]: 10

MIC [2]: 0.1 µg/mL (≈ 0.276 µM)
SMILES: O=C(c1ccccc1Cl)C(O)(Cn1cncn1)c1ccccc1Cl (centres unmarked) [compound 10]
minimal effective concentration [4]: 0.08 µg/mL
Disease degree (%) [5]: 8%
Control (%) [5]: 92%

MIC [2]: 1.56 µg/mL (≈ 4.85 µM)
SMILES: Cc1ccc(C(=O)C(O)(Cn2cncn2)c2ccc(C)cc2)cc1 (centres unmarked) [compound 9]

MIC [2]: 0.1 µg/mL (≈ 0.305 µM)
SMILES: CCCC(=O)C(O)(Cn1cncn1)c1ccc(Cl)cc1Cl (centres unmarked) [compound 25]
minimal effective concentration [4]: 0.04 µg/mL
Soil application (10 ppm) Prevention [3]: 10
Foliar spray (125 ppm) Supprension [3]: 10
Foliar spray (125 ppm) Prevention [3]: 10
Growth of mycelia (mm) ([6]; 28°C, r.h. 97 %): 20 mm
Suppression (%) ([6]; calculated from growth of mycelia): 90%

MIC [2]: 1.56 µg/mL (≈ 4.71 µM)
SMILES: OC(c1ccc(F)cc1)C(O)(Cn1cncn1)c1ccc(F)cc1 (centres unmarked) [compound 71]
Soil application (10 ppm) Prevention [3]: 10
Foliar spray (125 ppm) Supprension [3]: 10
Foliar spray (125 ppm) Prevention [3]: 10

MIC [2]: 0.1 µg/mL (≈ 0.232 µM)
SMILES: O=C(c1ccc(Cl)cc1Cl)C(O)(Cn1cncn1)c1ccc(Cl)cc1Cl (centres unmarked) [compound 6]
minimal effective concentration [4]: 0.16 µg/mL

SMILES: OC(c1ccc(Cl)cc1Cl)C(O)(Cn1cncn1)c1ccc(F)cc1 (centres unmarked) [compound 78]
minimal effective concentration [4]: 0.31 µg/mL

MIC [2]: 0.1 µg/mL (≈ 0.262 µM)
SMILES: OC(c1ccc(F)cc1)C(O)(Cn1cncn1)c1ccc(Cl)cc1Cl (centres unmarked) [compound 67]
minimal effective concentration [4]: 0.08 µg/mL
Survival Rate [1]: 100%

SMILES: O=C(c1ccccc1F)C(O)(Cn1cncn1)c1ccc(Cl)cc1Cl (centres unmarked) [compound 46]
Survival Rate [1]: 87.5%
Soil application (10 ppm) Prevention [3]: 5 (Disease sign was detected for about 30 % area)
Foliar spray (125 ppm) Supprension [3]: 10
Foliar spray (125 ppm) Prevention [3]: 10
Disease degree (%) ([7]; 22 ± 2°C, humid): 20%
Control (%) ([7]; calculated from disease degree): 80%
Disease degree (%) [5]: 0%
Control (%) [5]: 100%

MIC [2]: 0.1 µg/mL (≈ 0.231 µM)
SMILES: OC(c1ccc(Cl)cc1Cl)C(O)(Cn1cncn1)c1ccc(Cl)cc1Cl (centres unmarked) [compound 63, 1,2-bis(2,4-dichlorophenyl)-3-(1H-1,2,4-triazol-1-yl)-propylene glyco]
minimal effective concentration [4]: 0.08 µg/mL
Survival Rate [1]: 75%

SMILES: O=C(c1ccc(F)cc1)C(O)(Cn1cncn1)c1ccc(Cl)cc1Cl (centres unmarked) [compound 8]
minimal effective concentration [4]: 1.25 µg/mL
Disease degree (%) [5]: 5%
Control (%) [5]: 95%

MIC [2]: 1.6 µg/mL (≈ 5.41 µM)
SMILES: CCCC(O)C(O)(Cn1cncn1)c1ccc(Cl)cc1 (centres unmarked) [compound 80]

MIC [2]: 0.1 µg/mL (≈ 0.325 µM)
SMILES: CCC(C)C(=O)C(O)(Cn1cncn1)c1ccc(Cl)cc1 (centres unmarked) [compound 34]

MIC [2]: 3.13 µg/mL (≈ 8.64 µM)
SMILES: O=C(c1cccc(Cl)c1)C(O)(Cn1cncn1)c1cccc(Cl)c1 (centres unmarked) [compound 11]

MIC [2]: 0.1 µg/mL (≈ 0.275 µM)
SMILES: OC(c1ccccc1Cl)C(O)(Cn1cncn1)c1ccccc1Cl (centres unmarked) [compound 69]
minimal effective concentration [4]: 0.08 µg/mL

SMILES: CCC(C)C(=O)C(O)(Cn1cncn1)c1ccc(Cl)cc1Cl (centres unmarked) [compound 28]
minimal effective concentration [4]: 0.02 µg/mL

Source: patent publication EP0117578A2, “Azole-substituted alcohol derivatives” (SHIONOGI & CO., LTD., priority 1983, dated 1984)
